# From US20230088704A1, “A PHARMACEUTICAL COMBINATION FOR THE TREATMENT OF A CANCER” (ABILITY PHARMACEUTICALS S.L., priority 2020, published 2023)
# Assays:
# JJN-3 cells = test: Cell viability (MTT) and combination index, ABTL0812 with bortezomib; assay type: cell-based; details: ABTL0812 5 μM, Bortezomib 0.5 nM, alone or combined; 48h
# Experimental: (§1) Methods: JJN-3 and OPM2 cells were seeded in 24-well plates and treated with ABTL0812 (5 μM), bortezomib (0.5 and 1 nM respectively) or a combination of both drugs and left in the incubator for 48h (0.5% FBS). Cell viability was studied by the MTT assay and combination index was determined to evaluate a possible synergism.
# (§2) Cell viability was evaluated in all cases by MTT assay and the Combination Index (CI), to evaluate synergism, was calculated according to the method of Chou and Talalay (Chou 2006; Chou 2010), as follows: CI=(D)1/(Dx)1+(D)2/(Dx)2, where CI<1, =1, and >1 indicate synergism, additive effect, and antagonism, respectively. In the denominator, (Dx)1 is for D1 “alone” that inhibits a system x %, and (Dx)2 is for D2 “alone” that inhibits a system x %.
# OPM2 cells = test: as above; assay type: cell-based; details: ABTL0812 5 μM, Bortezomib 1 nM, alone or combined; 48h
# Experimental: as §1, §2
# LA1-5S cells [1] = test: Cell viability (crystal violet), ABTL0812 with temozolomide; assay type: cell-based; details: ABTL0812 40 μM + temozolomide 500, 1000, 1500 μM; 48 hours; 0.5% FBS
# Experimental: (§3) Methods: LA1-5S and SK-N-BE(2) cells were incubated with increasing concentrations of temozolomide (500 μM, 1000 μM and 1500 μM), and subIC50 fixed concentrations of ABTL0812. (30 μM for SK-N-BE(2) and 40 μM for LA1-5S). Cells were treated for 48 hours in IMDM with 0.5% FBS. Cell viability was evaluated by crystal violet assay. Different doses were assessed in six replicates and the results shown are the average of two independent experiments. Statistical analyses were performed according to the T-Test principle with GraphPad Prism® 5.0 software.
# SK-N-BE(2) cells = test: as above; assay type: cell-based; details: ABTL0812 30 μM + temozolomide 500, 1000, 1500 μM; 48 hours; 0.5% FBS
# Experimental: as §3
# LLC1 cells [2] = test: Syngeneic lung cancer model, subcutaneous LLC1, survival; assay type: in vivo, C57BL6 mice; details: ABTL0812 oral 120 mg/kg/day, anti-PD1 i.p. 100 ug/dose every three days
# Experimental: C57BL6 mice were injected with 0.25×10^6 LLC1 cells in one flank to induce tumor formation. […] Tumor volume and body weight were monitored 3 times a week. End point criteria was based on tumors over 800 mm3, or clinical signs of toxicity, distress or suffering indicative of animal euthanasia.
# LA1-5S cells [3] = test: Cell viability (crystal violet), ABTL0812 with topotecan; assay type: cell-based; details: ABTL0812 30 μM + topotecan 0.5, 1, 2 μM; 72 hours
# Experimental: (§4) Methods: LA1-5S cells were incubated with increasing concentrations of topotecan (0.5 μM, 1 μM and 2 μM) and a fixed concentration of ABTL0812 (30 μM). Cells were treated for 72 hours in IMDM with 0.5% FBS. Cell viability was evaluated by crystal violet assay. Data is presented as mean±SEM of three independent experiments. Statistical analyses were performed according to the T-Test principle with GraphPad Prism® 5.0 software.
# U87MG cells [4] = test: Human glioblastoma orthotopic xenograft, ABTL0812 with temozolomide; assay type: in vivo, nude mice; details: ABTL0812 oral 240 mg/kg 5 days/week; temozolomide oral 32 mg/Kg first 5 days
# Experimental: Methods: Mice were intra-cerebrally injected with luciferase transfected U87MG cells. Animals were randomized 5 days after cell inoculation and treatments started. ABTL0812 was administered orally at 240 mg/kg 5 days/week; and temozolomide orally at 32 mg/Kg the first 5 days. Tumors were measured by quantification of bioluminescence intensity (BLI) of the region of interest.
# U87MG cells [5] = test: Human glioblastoma orthotopic xenograft, ABTL0812 with radiotherapy; assay type: in vivo, nude mice
# Experimental: Methods: Mice were intra-cerebrally injected with luciferase transfected U87MG cells. Animals were randomized 5 days after cell inoculation and treatments started. ABTL0812 was administered orally at 240 mg/kg 5 days/week and radiotherapy as single dose of 4 Gy administered at day 10.
# Tumors were measured by quantification of bioluminescence intensity (BLI) of the region of interest.
# MiaPaca2 cells = test: Cytotoxicity against MiaPaca2 cells; assay type: cell-based, human; details: previous results
# LA1-5S cells [6] = test: Cell viability (crystal violet), ABTL0812 with irinotecan; assay type: cell-based; details: ABTL0812 30 μM + irinotecan 4, 8, 16 μM; 72 hours
# Experimental: as §4, with “of irinotecan (4” for “of topotecan (0.5”, “μM, 8” for “μM, 1”, “and 16” for “and 2”, “5.0 software (*p<0.05; **p<0.01; ***p<0.001).” for “5.0 software.”
# LLC1 cells [7] = test: Syngeneic lung cancer model, subcutaneous LLC1, tumor volume; assay type: in vivo, C57BL6 mice; details: ABTL0812 oral 120 mg/kg/day; anti-PD1 i.p. 100 μg/dose every three days; carboplatin and paclitaxel i.p. once a week
# Experimental: C57BL6 mice were injected with 0.25×10^6 LLC1 cells in one flank to induce tumor formation. […] Tumor volume and body weight were monitored 3 times a week.
# [8] = system: Human pancreatic cancer cells; test: Immunogenic cell death (ICD) hallmarks; assay type: cell-based; details: ABTL0812 0 to 150 μM; 24 hours
# Experimental: Methods: Human pancreatic cancer cells were treated with increasing concentrations of ABTL0812 (ranging from 0 to 150 μM) for 24 hours, and ICD hallmarks extracellular Hmgb1 and ATP, surface Calreticulin, and caspases 3 and 8 activation, were evaluated by ELISA (Hmgb1 and ATP), flow cytometry (Calreticulin) and immunoblotting (Caspases 3 and 8). For extracellular Hmgb1 and ATP, culture media from ABTL0812 treated cells were collected and incubated with specific antibodies for further detection using colorimetric assay. For surface Calreticulin, cancer cells were collected and incubated with specific antibody for further detection using flow cytometry. For Caspase 3 and 8 activation, cancer cells were collected, protein lysate obtained, incubated with specific antibodies for further detection using immunoblotting and finally quantified using densitometry.
smiles,measurement,setting,value
"CCCCC/C=C\C/C=C\CCCCCCC(O)C(=O)O (centres unmarked) [ABTL0812, COOH—CHOH—(CH2)6—(CH═CH—CH2)2—(CH2)3—CH3]",cell death,JJN-3 cells,around 10%
same,cell death,OPM2 cells,around 20%
same,temozolomide cytotoxicity on addition of ABTL0812,LA1-5S cells [1],increased temozolomide cytotoxicity
same,temozolomide cytotoxicity on addition of ABTL0812,SK-N-BE(2) cells,increased temozolomide cytotoxicity
same,survival,LLC1 cells [2]; after 9 days of treatment,43%
same,survival,LLC1 cells [2]; after 14 days of treatment,15%
same,topotecan cytotoxicity on addition of ABTL0812,LA1-5S cells [3],significantly increased topotecan cytotoxicity
same,disease-free survival,U87MG cells [4],significantly increased the disease-free survival
same,"disease-free survival, single agent",U87MG cells [5]; ABTL0812 oral 240 mg/kg 5 days/week,significantly increased the disease-free survival
same,"disease-free survival, combination with radiotherapy",U87MG cells [5]; ABTL0812 oral 240 mg/kg 5 days/week + radiotherapy single dose 4 Gy at day 10,significantly more efficacious than the single treatments
same,IC50,MiaPaca2 cells,50 µM
same,irinotecan cytotoxicity on addition of ABTL0812,LA1-5S cells [6],significantly increased irinotecan cytotoxicity
same,tumor volume,LLC1 cells [7],significantly reduced tumor volume
same,Caspase 3 and 8 activation,[8],dose dependent increase
same,extracellular ATP,[8],dose dependent increase
same,extracellular Hmgb1,[8],dose dependent increase
same,surface Calreticulin,[8],dose dependent increase
